Measured values as given in US5658880A, “Sialic acid/fucose based medicaments” (Glycomed Incorporated, priority 1994, dated 1997).

How the values were obtained:
P-selectin = test: Flow cytometric assay: inhibition of P-selectin-IgG binding to HL-60 cells; format: cell-based, human; design: unit of the concentration uncertain
Experimental: The interaction of P-selectin and its cellular ligand was studied using a flow cytometric assay (Erbe, D. V. et al., J. Cell Biol. (1993) 120:1227). HL60 cells (maintained in high glucose DME plus 10% Hyclone FBS) were used in this assay. Before staining with P-selectin-IgG the cells were preincubated in Dulbecco's PBS/1% BSA/0.1% sodium azide/1% normal rabbit serum (staining medium) for 30-60 mins on ice. After this initial incubation, 1 μg of P-selectin-IgG was added to 100 μl aliquots of 10^6 cells and incubated for 30-60 mins on ice. The cells were when washed with staining medium and resuspended in 100 μl of staining medium to which was added 2 μl of a phycoerythrin-conjugated F(ab')^2 goat anti-human IgG (Fc specific). The cells were incubated for 15-30 mins on ice, washed twice with staining medium, and resuspended in 0.5 ml of staining medium before flow cytometric analysis on a FACScan (Becton Dickinson & Co., Mountain View, Calif.). To determine that the staining was an interaction of P-selectin with its ligand, the staining was also done in the presence of 10 mM EGTA. To determine the protease sensitivity and the requirement for sialic acid of this interaction, HL-60 cells in D-PBS and 1% BSA were incubated with either trypsin or Arthrobacter or Clostridium sialidases at 37° C. before resuspending in staining medium. To examine the ability of various carbohydrates to inhibit staining, 50 μg/ml fucoidin (Sigma Immunochemicals, St. Louis, Mo.), 50 μg/ml dextran sulfate (Pharmacia Fine Chemicals, Piscataway, N.J.), 10 mg/ml mannose-1-phosphate (Sigma Immunochemicals), or 10 mg/ml mannose-6-phosphate (Sigma Immunochemicals) was added to cells immediately before the addition of the P-selectin chimera. Each carbohydrate was then present until the cells were washed before the addition of the second stage antibody. A potential complication of this FACS assay arose from the use of selectin-IgG chimeras to stain cells which bear human IgG Fc receptors (FcγR; Fanger, M. W., et al., Immunol. Today (1989) 10:92). Adding rabbit IgG (in the form of normal rabbit serum) to the assay medium blocked this binding in most cases.

[1] = test system: neutrophil migration into the peritoneum; test: Murine thioglycollate induced peritonitis: neutrophil migration to the peritoneal cavity; format: in vivo, mouse (Swiss Webster)
Excerpt: The efficaciousness of 7 and 10 was shown using a murine thioglycollate induced peritonitis model. The assay materials and methods are known in the art, or are generally described by Lewinsohn, D. et al., J. Immun., 138:4313-4321 (1987), or Watson, S. et al., Nature 349:164-166 (1991). This assay measures the ability of the compounds to inhibit neutrophil migration to the peritoneal cavity, the migration being initiated by the presence of thioglycollate in the peritoneal cavity. Thioglycollate is a known and effective inflammatory agent that causes neutrophil migration into the mouse peritoneum when it is administered intraperitoneally. Lewinsohn, D. et al., J. Immun. (1987) 138:4313-4321. Briefly, female Swiss Webster mice weighing about 25 grams were injected in the tail vein with 200 μl of phosphate buffered saline (PBS) with or without the appropriate compound. The pH of the solutions was adjusted to neutrality by the addition of either NaOH or HCL and sterilized by filtration through a 0.2 μ filter. Immediately following injection with the appropriate compound or PBS, the mice were injected intraperitoneally with 1 ml of thioglycollate medium prepared as described by the manufacturer, BBL. Three hours following injection of the thioglycollate solution the mice were sacrificed by CO2 asphyxiation, and the number of cells in the peritoneum removed by lavage with 5 ml of heparinized (5 U/ml) 0.9% sodium chloride solution containing 0.1% bovine serum albumin. Cell number was determined using a Coulter Counter. The cells were prepared for counting by diluting the lavage fluid with 1:50 of a commercial physiological isotonic solution, Isoton II, and the cells lysed by adding S/P Lysing and Hemoglobin Reagent (1:100 final dilution). Cell nuclei were counted in a sized window with lower and upper limits set at 3.9 and 5.7 μm, respectively.

`CC(=O)NC1C(O)CC(OCCCCCCOC2OC(C)C(O)C(O)C2O)(C(=O)O)OC1C(O)C(O)CO` [Compound 7, 1-O-α-Neu5Ac-(6-O-α-L-Fucopyranosyl)-Hexane] was tested, and the “Inhibition (%) of P-selectin-IgG binding to HL-60 cells” value (P-selectin; 10 (unit uncertain)) was 60%, the “Inhibition (%) of P-selectin-IgG binding to HL-60 cells” value (P-selectin; 50 (unit uncertain)) was 80% and the “Inhibition (%) of P-selectin-IgG binding to HL-60 cells” value (P-selectin; 100 (unit uncertain)) was 80%. For the same compound, the “inhibited more neutrophil migration than 10” value ([1]; 7 compared with 10, FIG. 7) was “about 30%” and the “inhibit neutrophil migration into the peritoneum” value ([1]; mice, tail vein injection, 3 h after thioglycollate, FIG. 7(a) and (b)) was “inhibit neutrophil migration into the peritoneum”.
